Measurements published in patent US20090186868A1, “Taxane Compound Having Azetidine Ring Structure” (Daiichi Sankyo Company Limited, priority 2005, published 2009).
Converted amounts (≈) assume the structure as drawn. Where two headings read alike, the source gives them in different places.

What was measured:
[1] = Solubility in first and second solution for disintegration test (Japanese Pharmacopoeia); format: physicochemical; details: for solubility: thermodynamic from solid
Protocol: Solubility of each compound was determined in the first solution for disintegration test according to Japanese Pharmacopoeia (henceforth referred to as the first solution, solution obtained by adding 7 mL of hydrochloric acid and water to 2.00 g of sodium chloride to dissolve sodium chloride and fill up the solution to 1000 mL, pH 1.2) and the second solution for disintegration test according to Japanese Pharmacopoeia (henceforth referred to as the second solution, solution obtained by adding 118 mL of 0.2 mol/L solution of sodium hydroxide to 6.80 g of potassium dihydrogenphosphate, adding water to the mixture to dissolve potassium dihydrogenphosphate and filling up the solution to 1000 mL, pH 6.8).
Each test compound was dissolved in 100% dimethyl sulfoxide (DMSO) at a concentration of 10 mM, and 50 μL of the solution was lyophilized. The lyophilized test compound was added with 250 μL of the first solution or second solution, and the mixture was stored at room temperature for 12 hours or longer under light shielding, and filtered (0.7 μm). The filtrate was taken in a volume of 90 μL, and added with 50% DMSO (90 μL) to obtain a two-fold diluted solubility sample. The two-fold dilution solubility sample was taken in a volume of 20 μL, and added with 50% DMSO (180 μL) to obtain a […] diluted solubility sample. Solubility of each test sample was determined by quantifying the test compound in the resulting diluted solubility test samples using high-performance liquid chromatography.

[2] = tested on: HCT-15 (P glycoprotein (P-gp) expressing human colon cancer cell line); assay: Anti-cell activity (MTT) against human tumor cell line HCT-15; format: cell-based; details: 72 h, HCT-15 (P-gp expressing), cultured three days, read-out: HCT-15 (GI50 value, ng/mL)
Protocol: (§1) Three types of human tumor cell lines (all of the cells were obtained from American Type Culture Collection) were seeded on 96-well microplates as follows.
(§2) NCI-H460 (human lung cancer cell line): 5.0×10^2 cells/190 μL/well HCT-15 (P glycoprotein (P-gp) expressing human colon cancer cell line, J. Natl. Cancer Inst., 2001, 93:1234-1245): 1.0×10^3 cells/190 μL/well HCT116 (human colon cancer cell line): 1.0×10^3 cells/190 μL/well On the next day, each test compound was dissolved in 100% dimethyl sulfoxide (DMSO) at a concentration of 10 mg/mL. This solution was diluted with 0.01% Cremophor EL-PBS(−) (Cremophor EL: Sigma Chemical Co., St. Louis, Mo., USA, PBS: Invitrogen Corp., Carlsbad, Calif., USA), and 10 μL of the diluted solution was added to each well (final concentration: 100 to 0.000381 ng/mL). The cells were cultured for three days, and then […] of a 5 mg/mL solution of 3-(4,5-dimethylthiazol-2-yl)-2,5-diphenyl-2H-tetrazolium bromide (MTT, Sigma Chemical Co.) was added to each well. The cells were further cultured for 4 hours, and then the medium was removed by centrifugation. By adding 150 μL of DMSO to each well, the produced formazan product was dissolved. The absorbance of the solution was measured at 540 nm. The drug concentration suppressing cell proliferation of the drug addition group to 50% of the cell proliferation of the drug free group (GI50 value, ng/mL) was calculated, and used as an index of anti-cell activity.

[3] = tested on: NCI-H460 (human lung cancer cell line); assay: Anti-cell activity (MTT) against human tumor cell line NCI-H460; format: cell-based; details: 72 h, NCI-H460, cultured three days, read-out: NCI-H460 (GI50 value, ng/mL)
Protocol: as §1, §2

[4] = tested on: HCT116 (human colon cancer cell line); assay: Anti-cell activity (MTT) against human tumor cell line HCT116; format: cell-based; details: HCT-116, 72 h, HCT116, cultured three days, read-out: HCT116 (GI50 value, ng/mL)
Protocol: as §1, §2

[5] = tested on: M5076 (histiocytoma expressing P-gp); assay: Antitumor effect in mice subcutaneously transplanted with M5076; format: in vivo, Mice (C57BL/6); details: for Therapeutic index: MTD/MED; for Effective dose range: range from MED to MTD, antitumor effect of 58% or more considered effective
From the text: (§3) Mice (C57BL/6, Charles River Japan) were subcutaneously transplanted with B16 melanoma BL6 (Cancer Res., Poste, G., Fidler, I. J. et al., 1980, 40:1636; Bioorg. Med. Chem. Lett., Takeda, Y. et al., 2003, 13:185-190), or M5076 (obtained from Japanese Foundation for Cancer Research), which is a histiocytoma expressing P-gp. Four days after the transplantation in the case of B16 melanoma BL6, or 8 to 10 days after the transplantation in the case of M5076, each test compound suspended in a 0.5% aqueous solution of carboxymethylcellulose sodium, or dissolved in EtOH:Tween 80:5% glucose=5:5:90 (v/v %) was orally (po) or intravenously (iv) administered to the mice. Ten days after the administration in the case of B16 melanoma BL6, or 8 to 10 days after the administration in the case of M5076, the mice were dissected, and tumor weights were measured. The antitumor effect was calculated in accordance with the following equation.
(§4) [1−(Average tumor weight of compound administration group/average tumor weight of solvent administration group)]×100
(§5) An antitumor effect of 58% or more was considered effective (Int. J. Cancer, 1989, 43:637-44), and the maximum tolerance dose (MTD, maximum dose not causing death, mg/kg) and minimum effective dose (MED, mg/kg) showing effectiveness were obtained, respectively. The therapeutic index was calculated in accordance with the equation: MTD/MED.
(§6) ND means that the test was not performed. The effective dose range means the range of from MED to MTD.

B16 melanoma BL6 = assay: Antitumor effect in mice subcutaneously transplanted with B16 melanoma BL6; format: in vivo, Mice (C57BL/6); details: for Therapeutic index: MTD/MED; for Effective dose range: range from MED to MTD, antitumor effect of 58% or more considered effective
From the text: as §3, §4, §5, §6

[6] = pH 1.2, simulated gastric fluid
[7] = aqueous buffer, second solution for disintegration test, pH 6.8, room temperature, 12 hours or longer, read-out: Solubility (μg/mL) pH 6.8
[8] = simulated gastric fluid, first solution for disintegration test, pH 1.2, room temperature, 12 hours or longer, read-out: Solubility (μg/mL) pH 1.2

Compound | solubility [1, 6] | solubility ([1]; pH 6.8, aqueous buffer) | GI50 [2] | GI50 [3] | GI50 [4] | solubility [1, 7] | solubility [1, 8] | Therapeutic index ([5]; M5076, iv) | Effective dose range ([5]; M5076, iv) | Therapeutic index ([5]; M5076, po) | Effective dose range ([5]; M5076, po) | Therapeutic index (B16 melanoma BL6; B16 Melanoma BL6, iv) | Therapeutic index (B16 melanoma BL6; B16 Melanoma BL6, po) | Solubility (μg/mL) pH 1.2 ([1]; first solution for disintegration test, pH 1.2, room temperature, 12 hours or longer) | Solubility (μg/mL) pH 6.8 ([1]; second solution for disintegration test, pH 6.8, room temperature, 12 hours or longer) | Effective dose range (B16 melanoma BL6; B16 Melanoma BL6, iv) | Effective dose range (B16 melanoma BL6; B16 Melanoma BL6, po)
CC(=O)O[C@H]1C(=O)[C@@]2(C)[C@H]([C@H](OC(=O)c3ccccc3)[C@]3(O)C[C@H](OC(=O)[C@H](O)[C@@H](NC(=O)c4ccccc4)c4ccccc4)C(C)=C1C3(C)C)[C@]1(OC(C)=O)CO[C@@H]1C[C@@H]2O [Paclitaxel, reference compound] | < 4 µg/mL | < 4 µg/mL | > 100 ng/mL | 1.87 ng/mL (≈ 0.00219 µM) | 1.71 ng/mL (≈ 0.002 µM) |  |  |  |  |  |  |  |  |  |  |  | 
CC(=O)O[C@@]12CO[C@@H]1CC[C@@]1(C)[C@@H]3O[C@H](CN4CCC4)O[C@@H]3C3=C(C)[C@@H](OC(=O)[C@H](O)[C@@H](NC(=O)OC(C)(C)C)c4ncccc4F)C[C@@](O)([C@@H](OC(=O)c4ccccc4)[C@@H]12)C3(C)C [Example 2, (1S,2S,3R,4S,5R,8R,9S,10R,13S)-4-(Acetoxy)-9,10-[(1S)-2-(azetidino)ethylidenedioxy]-2-(benzoyloxy)-5,20-epoxy-1-hydroxytax-11-en-13-yl (2R,3S)-3-(tert-butoxycarbonylamino)-3-(3-fluoro-2-pyridyl)-2-hydroxypropionate] |  |  | 2.31 ng/mL (≈ 0.00258 µM) | 0.606 ng/mL (≈ 0.000678 µM) | 0.669 ng/mL (≈ 0.000748 µM) | 170 µg/mL (≈ 190 µM) | 1100 µg/mL (≈ 1230 µM) | 1.0 | 14.7 mg/kg | 2.0 | 13.7 to 28 mg/kg | 2.9 | 2.9 |  |  |  | 
CC(=O)O[C@@]12CO[C@@H]1CC[C@@]1(C)[C@@H]3O[C@H](CN4CCC4)O[C@@H]3C3=C(C)[C@@H](OC(=O)[C@H](O)[C@@H](NC(=O)OC(C)(C)C)c4ccccn4)C[C@@](O)([C@@H](OC(=O)c4ccccc4)[C@@H]12)C3(C)C [Example 1, (1S,2S,3R,4S,5R,8R,9S,10R,13S)-4-(Acetoxy)-9,10-[(1S)-2-(azetidino)ethylidenedioxy]-2-(benzoyloxy)-5,20-epoxy-1-hydroxytax-11-en-13-yl (2R,3S)-3-(tert-butoxycarbonylamino)-2-hydroxy-3-(2-pyridyl)propionate] |  |  | 1.14 ng/mL (≈ 0.0013 µM) | 0.19 ng/mL (≈ 0.000217 µM) | 0.244 ng/mL (≈ 0.000279 µM) | 170 µg/mL (≈ 194 µM) | 1200 µg/mL (≈ 1370 µM) |  |  |  |  |  | 2.9 |  |  |  | 
CC(=O)O[C@@]12CO[C@@H]1CC[C@@]1(C)[C@@H]3O[C@H](CN4CC(O)C4)O[C@@H]3C3=C(C)[C@@H](OC(=O)[C@H](O)[C@@H](NC(=O)OC(C)(C)C)c4ncccc4F)C[C@@](O)([C@@H](OC(=O)c4ccccc4)[C@@H]12)C3(C)C [Example 6, (1S,2S,3R,4S,5R,8R,9S,10R,13S)-4-(Acetoxy)-2-(benzoyloxy)-5,20-epoxy-1-hydroxy-9,10-[(1S)-2-(3-hydroxyazetidino)ethylidenedioxy]tax-11-en-13-yl (2R,3S)-3-(tert-butoxycarbonylamino)-3-(3-fluoro-2-pyridyl)-2-hydroxypropionate] | 690 µg/mL (≈ 758 µM) | 87 µg/mL (≈ 95.6 µM) | 7.94 ng/mL (≈ 0.00873 µM) | 0.172 ng/mL (≈ 0.000189 µM) | 0.183 ng/mL (≈ 0.000201 µM) |  |  |  |  | 2.0 | 18.6 to 38.0 mg/kg |  | 4.2 |  |  |  | 
CC[C@H](NC(=O)OC(C)(C)C)[C@@H](O)C(=O)O[C@H]1C[C@@]2(O)[C@@H](OC(=O)c3ccccc3)[C@H]3[C@@](C)(CC[C@H]4OC[C@]43OC(C)=O)[C@@H]3O[C@H](CN4CCC4)O[C@@H]3C(=C1C)C2(C)C [Example 37, (1S,2S,3R,4S,5R,8R,9S,10R,13S)-4-(Acetoxy)-9,10-[(1S)-2-(azetidino)ethylidenedioxy]-2-(benzoyloxy)-5,20-epoxy-1-hydroxy-tax-11-en-13-yl (2R,3S)-3-(tert-butoxycarbonylamino)-2-hydroxypentanoate] |  |  |  |  |  |  |  | 1.4 | 14.7 to 21.0 mg/kg |  |  | 4.2 | 2.0 | 670 μg/mL | 210 μg/mL | 7.21 to 30.0 mg/kg | 14.7 to 30.0 mg/kg
CC(=O)O[C@@]12CO[C@@H]1CC[C@@]1(C)[C@@H]3O[C@H](CN4CC(C)(O)C4)O[C@@H]3C3=C(C)[C@@H](OC(=O)[C@H](O)[C@@H](NC(=O)OC(C)(C)C)c4ccccn4)C[C@@](O)([C@@H](OC(=O)c4ccccc4)[C@@H]12)C3(C)C [Example 11, (1S,2S,3R,4S,5R,8R,9S,10R,13S)-4-(Acetoxy)-2-(benzoyloxy)-5,20-epoxy-1-hydroxy-9,10-[(1S)-2-(3-hydroxy-3-methylazetidino)ethylidenedioxy]tax-11-en-13-yl (2R,3S)-3-(tert-butoxycarbonylamino)-2-hydroxy-3-(2-pyridyl)propionate] |  |  | 4.21 ng/mL (≈ 0.00465 µM) | 0.109 ng/mL (≈ 0.00012 µM) | 0.173 ng/mL (≈ 0.000191 µM) | 170 µg/mL (≈ 188 µM) | 1300 µg/mL (≈ 1430 µM) |  |  |  |  |  | 5.9 |  |  |  | 
CC(=O)O[C@@]12CO[C@@H]1CC[C@@]1(C)[C@@H]3O[C@H](CN4CC[C@H]4CO)O[C@@H]3C3=C(C)[C@@H](OC(=O)[C@H](O)[C@@H](NC(=O)OC(C)(C)C)c4ncccc4F)C[C@@](O)([C@@H](OC(=O)c4ccccc4)[C@@H]12)C3(C)C [Example 22, (1S,2S,3R,4S,5R,8R,9S,10R,13S)-4-(Acetoxy)-2-(benzoyloxy)-5,20-epoxy-1-hydroxy-9,10-{(1S)-2-[(2S)-2-hydroxymethylazetidino]ethylidenedioxy}tax-11-en-13-yl (2R,3S)-3-(tert-butoxycarbonylamino)-3-(3-fluoro-2-pyridyl)-2-hydroxypropionate] |  |  |  |  |  | 85 µg/mL (≈ 92 µM) | 1100 µg/mL (≈ 1190 µM) | 2.0 | 12.0 to 24.5 mg/kg | 2.0 | 17.2 to 35 mg/kg | 6.0 | 4.2 |  |  |  | 
